This note sets out measurements from publication PMC8302598, “Rapid discovery of self-assembling peptides with one-bead one-compound peptide library” (Nature Communications, 2021).

“And” between values parts separate entries of the source, which are not always exact repeats. Identical values can stand only once. “Also recorded” adds a separate entry of the source.

Data set [1] can be described thus: TEM morphology and size of peptide nano-assemblies over time. It counts as physicochemical. To be noted: for Initial nanostructure (TEM): DMSO stock 5 mM diluted 100X with water, 50 μM (legend: 40 μM), 1% DMSO, fixed immediately (0 h); for Nanoparticle size by TEM, 4 h / Nanoparticle size by TEM, 0 h: H2O with 1% DMSO, 40 μM / 50 μM. From the text: Self-assembling peptides with good biocompatibility may be used to construct nanocarriers for drug delivery. We recently reported the use of FFVLK, the reverse sequence of KLVFF, as a self-aggregating β-sheet forming domain for the delivery of HER2 targeting peptides for successful treatment of breast cancer in xenograft models. Such FFVLK containing peptide is able to self-assemble into nanoparticles. Upon intravenous administration, the FFVLK-nanoparticle was able to transform into nanofibrillar network when encountering HER2 at the tumor sites. To investigate the morphology of the nano-assembly formed by the eight self-assembling peptides, we dissolved each of these peptides in DMSO (5 mM) and then diluted them 100X with water at a final peptide concentration of 50 μM to induce spontaneous self-assembly. Each sample was fixed immediately after peptide solution preparation and at 4 h time point for subsequent TEM processing and analysis. As clearly shown in Fig. 4a, all eight self-assembling peptides initially formed some nanostructures: nanoparticles for ITSVV, YFTEF, ISDNL, LDFPI, FAGFT, FGFDP, and FTISD; nanofibers for FFVDF. […] LDFPI (8 nm) maintained the particulate morphology without changing of diameter in 4 h. FFVDF formed nanofibers at 0 and 4 h. […] Time-dependent size variations of pentapeptides in water were further confirmed by DLS spectra (Supplementary Fig. 18). The initial diameters of nanoparticles formed by seven pentapeptides were larger than that observed by TEM, probably due to hydration radius. The size of the nanostructure increased over time, correlating well with the morphologic transformation. […] Circular dichroism (CD) was used to monitor the secondary structures of the nano-assembly of the eight self-assembling peptides over time (Supplementary Fig. 20).
Pentapeptides monomers were dissolved in DMSO at a concentration of 5.0 mM, followed by quick injection into water at a volume ratio of 1:99 for DMSO and H2O to obtain the nanomaterials solution (50 μM). For 30 mM pentapeptide solution, the pentapeptide was dissolved in water and sonicated for 3 min.
The pentapeptide solution with the concentration of 20 μM (10 μL) was placed dropwise onto a copper mesh for 5 min, then most of the liquid was removed through a filter paper. Ten microliters of uranyl acetate solution were employed to stain the samples for 5 min, followed by drying the spare liquid with the filter. Finally, the copper mesh was washed with 10 μL of deionized water, which was blotted after staining and drying at room temperature. All of the samples were observed by TEM (Tecnai G2 20 S-TWIN) at an accelerating voltage of 200 kV.

The test system of data set [2] is HeLa cells. Briefly: Time-dependent co-localization of FITC-labeled peptides with lysosomes (CLSM). To be noted: 50 μM; for Pearson correlation coefficient, peptide vs lysosomes, 2 h: peptide for 2 h; for Pearson correlation coefficient, peptide vs lysosomes, 4 h: peptide for 2 h and DMEM for 2 h; for Pearson correlation coefficient, peptide vs lysosomes, 8 h: peptide for 2 h and DMEM for 6 h. It counts as cell-based. As to the method:
Supplementary Figure 24. a) Time-dependent (2, 4, 8 h) CLSM images for monitoring and quantitatively analyzing uptake of fluorescent peptide assemblies (YFTEF, ISDNL, and FGFDP at 50 μM) by HeLa cells. The scale bar is 10 μm. b) Corresponding colocalization analysis of images from ‘a’. […]
Regarding the entrance of nanoparticles into HeLa cells, we have carried out additional experiments to address reviewer’s concern. To track the biodistribution of these peptides in the cytosol, peptides YFTEF, ISDNL and FGFDP were labeled by addition of FITC-labeled peptides (FITC-YFTEF, FITC-ISDNL, FITC-FGFDP) at 3% level, respectively, prior to self-assembly, and then incubated with HeLa cells for 2 h. The incubated cells were then washed with PBS three times and further incubated with Dulbecco's modified eagle medium without peptide for another 2 and 6 h. The lysosomes of the cells were stained with red fluorescence after 2 (peptide for 2 h), 4 (peptide for 2 h and DMEM for 2 h), or 8 h (peptide for 2 h and DMEM for 6 h) incubation, followed by CLSM observation.
For ISDNL, good co-localization (Pearson correlation coefficient: 0.92) between peptides and lysosomes […]
lysosomes (colocalization from 0.92 at 2 h, to 0.76 at 4 h and 0.69 at 8 h).
ISDNL based nanoparticles could escape from lysosomes over time.
For YFTEF, good co-localization (yellow fluorescence) between YFTEF (green fluorescence) and with […]
The co-localization efficiency for YFTEF and lysosomes remained high over time (4 h, 0.93; 8 h, 0.91).
For FGFDP, the Pearson correlation coefficient of lysosome was determined to be about 0.7 for 2 (0.74), 4 (0.79), 8 h (0.72). It seems that FGFDP might have escaped from lysosomes prior to the 2 h time point.
In order to confirm this hypothesis, we did the co-localization study at earlier time points: 30 min to 1 h.
The results reveal that FGFDP increased the distribution in the lysosome from 30 min (Pearson correlation coefficient: 0.59) to 1 h (Pearson correlation coefficient: 0.94), and then decreased to 0.74 at 2h. These […]
escape from lysosomes sometime between 1-2 h.

Data set [3] relates to HeLa cells. Briefly: Cell uptake efficiency by fluorescence of lysed cells. It counts as cell-based. To be noted: HeLa cells incubated with peptides 4 h, fluorescence quantified. As to the method: and FGFDP entered lysosome and then escaped. The ISDNL escaped in 4 h, and FGFDP escaped between 1-2 h. Both ISDNL and FGFDP had capability of lysosomal escape, which may be useful for gene or nucleic acid delivery, as implied by the reviewer.
Figure R10. a. Time-dependent CLSM images for monitoring and quantitatively analyzing HeLa cells incubated with 50 μM pentapeptide nano-assembly of YFTEF, ISDNL, and FGFDP, b. corresponding co-localization analysis of experiment shown in “a”.
To confirm how efficient the peptides (YFTEF, ISDNL, and FGFDP) enter living cells, HeLa cells were incubated with peptides for 4 h, the cells were then lysed and fluorescence quantified to calculate the […]
Table R2. Cell uptake efficiency of peptides. […]
To elucidate the cell uptake pathways of pentapeptides, we quantified the fluorescence intensity of the HeLa cells after incubation with FITC-labeled nano-assembly of YFTEF, ISDNL, FAGFT, FGFDP, at 37 and 4 °C, respectively (3% of the peptide assembly were N-terminally labeled with FITC for tracking). There were nearly no uptake of pentapeptides by HeLa cells at 4 °C, which is consistent with mechanism of cell uptake by endocytosis. We have also examined the effects of cell uptake by various endocytosis inhibitors: amiloride (2 mM, inhibitor of endocytosis), M-β-CD (5 mM, inhibitor of caveolae-dependent endocytosis), and chlorpromazine (50 μM, inhibitor of clathrin-dependent endocytosis).
(1 picture or pasted object on this page, not shown here)

Setting [4] is: FITC-labeled peptide/Lyso-Tracker co-localization.

Turning to “ISDNL [self-assembling pentapeptide identified from OBOC library]”, the “Initial nanostructure (TEM)” value in data set [1] is reported as “nanoparticles”. Further, the “Pearson correlation coefficient, peptide vs lysosomes, 2 h” value in data set [2] (3% FITC-labeled peptide) is given as 0.92. For the same substance, in data set [2], the “Pearson correlation coefficient, peptide vs lysosomes, 4 h” value is 0.76 and the “Pearson correlation coefficient, peptide vs lysosomes, 8 h” value is recorded as 0.69. Moreover, the Cell uptake efficiency in data set [3] is 2.2%.

For “ITSVV [self-assembling pentapeptide identified from OBOC library]”, in data set [1], the “Initial nanostructure (TEM)” value is on record as “nanoparticles” and the “Nanoparticle size by TEM, 4 h” value is on record as ~ 300 nm.

For the substance “YFTEF [self-assembling pentapeptide identified from OBOC library]”, in data set [1], the “Initial nanostructure (TEM)” value is listed as “nanoparticles”; the “Nanoparticle size by TEM, 0 h” value came to 41 nm; the “Nanoparticle size by TEM, 4 h” value was 75 nm. For the same substance, in data set [2] (3% FITC-labeled peptide), the “Pearson correlation coefficient, peptide vs lysosomes, 2 h” value is recorded as 0.92. Moreover, the Retention in lysosomes entry in data set [2] (setting [4]) is on record as “remained in lysosomes at 8 h; also recorded: remained in lysosomes for 8 h without obvious escape”. Besides, in data set [2], the “Pearson correlation coefficient, peptide vs lysosomes, 4 h” value came to 0.93 and the “Pearson correlation coefficient, peptide vs lysosomes, 8 h” value was 0.91. The Cell uptake efficiency in data set [3] is 3.9%.

In the case of “FAGFT [self-assembling pentapeptide identified from OBOC library]”, in data set [1], the “Initial nanostructure (TEM)” value is recorded as “nanoparticles”; the “Nanoparticle size by TEM, 0 h” value was found to be 10 nm; the “Nanoparticle size by TEM, 4 h” value is on record as 15 nm.

Regarding “FGFDP [self-assembling pentapeptide identified from OBOC library]”, in data set [1], the “Initial nanostructure (TEM)” value was “nanoparticles”. In addition, the “Pearson correlation coefficient, peptide vs lysosomes, 30 min” value in data set [2] (3% FITC-labeled peptide, 30 min) was 0.59. For the same substance, the “Pearson correlation coefficient, peptide vs lysosomes, 1 h” value in data set [2] (3% FITC-labeled peptide, 1 h) was found to be 0.94. Besides, the “Pearson correlation coefficient, peptide vs lysosomes, 2 h” value in data set [2] (3% FITC-labeled peptide) is listed as 0.74. In addition, the “Time of escape from lysosomes” value in data set [2] (setting [4]) is 1 to 2 h and ~1.5 h. Also, in data set [2], the “Pearson correlation coefficient, peptide vs lysosomes, 4 h” value amounted to 0.79 and the “Pearson correlation coefficient, peptide vs lysosomes, 8 h” value is given as 0.72. In data set [3], this substance showed a Cell uptake efficiency of 4.8%.

Regarding “FTISD [self-assembling pentapeptide identified from OBOC library]”, the “Initial nanostructure (TEM)” value in data set [1] is on record as “nanoparticles”.

Take “FFVDF [self-assembling pentapeptide identified from OBOC library, forms nanofibers]”: the “Initial nanostructure (TEM)” value in data set [1] was “nanofibers”.

With “LDFPI [self-assembling pentapeptide identified from OBOC library]”, in data set [1], the “Initial nanostructure (TEM)” value is reported as “nanoparticles”; the “Nanoparticle size by TEM, 0 h” value turned out to be 8 nm; the “Nanoparticle size by TEM, 4 h” value is given as 8 nm.
